Test results from US20020103187A1, “Compositions and methods for treating superficial fungal infections” (priority 1999, published 2002).
In brackets after ≈: the same amount, converted by molar mass.

How the values were obtained:
[1] = system: Aspergillus fumigatus III; experiment: Sensitivity of fungi to taurolidine, solid medium; type: cell-based
[2] = system: Trichophyton mentagrophytes; experiment: Sensitivity of fungi to taurolidine, solid medium; type: cell-based
[3] = system: C. albicans (Jones); experiment: Sensitivity of fungi to taurolidine, solid medium; type: cell-based; settings: Candida albicans
[4] = system: C. albicans (Has. A); experiment: Sensitivity of fungi to taurolidine, solid medium; type: cell-based; settings: Candida albicans
[5] = Stability in the solid state; type: physicochemical; settings: stored at ambient conditions
[6] = Apparent partition coefficient between octanol and water; type: physicochemical; settings: water buffered at pH 7.2
[7] = Solubility in aqueous solutions and organic solvents; type: physicochemical
[8] = system: Candida albicans; experiment: Antifungal activity; type: cell-based; settings: the exception in the text summary of Table 1
[9] = system: Mucor spp. (light inoc.); experiment: Sensitivity of fungi to taurolidine, liquid medium; type: cell-based
[10] = system: Mucor spp. (heavy inoc.); experiment: Sensitivity of fungi to taurolidine, liquid medium; type: cell-based
[11] = system: C. albicans (Jones); experiment: Sensitivity of fungi to taurolidine, liquid medium; type: cell-based; settings: Candida albicans
[12] = system: C. albicans (Wilton); experiment: Sensitivity of fungi to taurolidine, solid medium; type: cell-based; settings: Candida albicans
[13] = system: bacteria; experiment: Antibacterial activity; type: cell-based; settings: antifungal activity stated approximately equivalent to it
[14] = system: Aspergillus fumigatus; experiment: Sensitivity of fungi to taurolidine, liquid medium; type: cell-based
[15] = system: Cryptococcus neoformans; experiment: Sensitivity of fungi to taurolidine, solid medium; type: cell-based
[16] = system: Mucor spp. (Lane); experiment: Sensitivity of fungi to taurolidine, solid medium; type: cell-based
[17] = system: C. albicans (Has. A); experiment: Sensitivity of fungi to taurolidine, liquid medium; type: cell-based; settings: Candida albicans
[18] = system: Rhizopus spp.; experiment: Sensitivity of fungi to taurolidine, solid medium; type: cell-based
[19] = system: C. spp.; experiment: Sensitivity of fungi to taurolidine, liquid medium; type: cell-based
[20] = system: C. tropicalis; experiment: Sensitivity of fungi to taurolidine, liquid medium; type: cell-based; settings: Candida tropicalis
[21] = system: Sporotrichum schenkii; experiment: Sensitivity of fungi to taurolidine, solid medium; type: cell-based
[22] = systemic doses exceeding 40 g/day and cumulative doses up to and exceeding 300 g; cited from earlier work
[23] = system: Aspergillus fumigatus I; experiment: Sensitivity of fungi to taurolidine, solid medium; type: cell-based
[24] = system: Trichophyton rubrum; experiment: Sensitivity of fungi to taurolidine, liquid medium; type: cell-based
[25] = system: C. albicans (I); experiment: Sensitivity of fungi to taurolidine, solid medium; type: cell-based; settings: Candida albicans
[26] = system: Epidermophyton floccosum; experiment: Sensitivity of fungi to taurolidine, solid medium; type: cell-based
[27] = pH of saturated solution in deionized water; type: physicochemical

## O=S1(=O)CCN(CN2CCS(=O)(=O)NC2)CN1 [Taurolidine, 4,4′-methylenebis(tetrahydro-1,2,4-thiadiazine)1,1,1′,1′,-tetraoxide]
[1]
  MIC: 625 µg/mL (≈ 2200 µM)
[2]
  MIC: < 300 µg/mL
[3]
  MIC: > 5000 µg/mL
[4]
  MIC: > 5000 µg/mL
[5]
  stability in the solid state: acceptable stability
[6]
  apparent partition coefficient between octanol and water: approximately 0.13
[7]; CHCl3
  solubility: insoluble
[7]; Dilute HCl
  solubility: soluble
[7]; Dilute NaOH
  solubility: soluble
[7]; EtOH
  solubility: sparingly soluble
[7]; Water, 20° C.
  solubility: 1% at 20 °C
[8]
  antifungal activity: > 5 mg/mL
[9]
  MIC: 625 µg/mL (≈ 2200 µM)
[10]
  MIC: 625 µg/mL (≈ 2200 µM)
[11]
  MIC: 5000 µg/mL (≈ 17600 µM)
[12]
  MIC: > 5000 µg/mL
[13]
  antibacterial activity: 0.3 to 0.6 mg/mL
[14]
  MIC: 300 µg/mL (≈ 1050 µM)
[15]
  MIC: < 300 µg/mL
[16]
  MIC: 625 µg/mL (≈ 2200 µM)
[17]
  MIC: 2500 µg/mL (≈ 8790 µM)
[18]
  MIC: 625 µg/mL (≈ 2200 µM)
[19]
  MIC: 625 µg/mL (≈ 2200 µM)
[20]
  MIC: 300 µg/mL (≈ 1050 µM)
[21]
  MIC: 625 µg/mL (≈ 2200 µM)
[22]
  safety and tolerability: safe and well tolerated
[23]
  MIC: 625 µg/mL (≈ 2200 µM)
[24]
  MIC: 300 µg/mL (≈ 1050 µM)
[25]
  MIC: > 5000 µg/mL
[26]
  MIC: < 300 µg/mL
[27]
  pH of a saturated solution: 7.4
